From the NIST ThermoML archive (doi:10.1016/j.jct.2015.12.032) come the findings set out here.

Numbers after ± are expanded uncertainties.

The conditions of data set [1]: for mass density: 298.15 K, 101.33 kPa, Liquid, Pycnometric method.
Data set [2] in a line: Molar enthalpy of transition or fusion. Conditions: Crystal; DSC.

Broadly, the mass density is mass per unit of volume.

On to `CCOC(C)=O` [ethyl acetate], for which the mass density in data set [1] is reported as 894.4 ± 1.6 kg/m3. On to `CNC(=O)NC` [1,3-dimethylurea], for which the “Molar enthalpy of transition or fusion” value in data set [2] was 3.05 ± 0.0932 kcal/mol. The Normal melting temperature in data set [1] (Crystal, DTA) was 103.20 ± 1.1 °C. On to `CCC(C)O` (stereo not drawn) [butan-2-ol], for which, in data set [1], the mass density is 802.4 ± 1.5 kg/m3. Regarding `CCCCOC(C)=O` [butyl ethanoate], the mass density in data set [1] is listed as 875.8 ± 1.6 kg/m3. With `CC(C)O` [propan-2-ol], in data set [1], the mass density was determined as 781.2 ± 1.4 kg/m3.

Consider `CC#N` [acetonitrile], for which the mass density in data set [1] was 777 ± 1.4 kg/m3. The same measure, in the same setting: as for `CC(C)=O` [acetone], the figure is 785.1 ± 1.4 kg/m3.
